Assay results published in PMC2217384 (The Journal of General Physiology, 2003).

Target: T1, P2X1 receptor (Rattus norvegicus, UniProt P47824)
T1 sequence (P47824 1-399): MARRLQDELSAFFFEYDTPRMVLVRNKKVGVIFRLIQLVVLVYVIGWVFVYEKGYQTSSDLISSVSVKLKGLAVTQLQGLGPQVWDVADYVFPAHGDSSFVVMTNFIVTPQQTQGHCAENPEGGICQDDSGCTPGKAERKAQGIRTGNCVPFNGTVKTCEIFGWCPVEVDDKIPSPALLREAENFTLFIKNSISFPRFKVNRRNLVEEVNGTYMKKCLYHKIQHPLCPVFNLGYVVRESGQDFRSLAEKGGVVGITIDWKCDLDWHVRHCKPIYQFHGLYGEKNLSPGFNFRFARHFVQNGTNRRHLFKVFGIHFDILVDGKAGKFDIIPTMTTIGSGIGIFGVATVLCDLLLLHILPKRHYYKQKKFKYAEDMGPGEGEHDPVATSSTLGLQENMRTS
Experiment: two-electrode voltage clamp in Xenopus oocytes
Format: cell-based

SMILES: Nc1ncnc2c1ncn2[C@@H]1O[C@H](COP(=O)(O)OP(=O)(O)OP(=O)(O)O)[C@@H](O)[C@H]1O [ATP]
- EC50: 700 ± 60 nM
